The text below walks through data of patent US11059795B2, “Androgen receptor modulators and methods for their use” (ESSA Pharma, Inc., priority 2018, dated 2021).

The subject of one data set is LNCaP cells. Nature of the data set: Cell proliferation/viability assay, LNCaP (Alamar blue). It is filed as cell-based. Conditions: Homo sapiens, AR specific proliferation with 0.1 nM R1881, read-out: Cellular Proliferation/Viability IC50 (μM) LNCaP. The method, then: (§1) Cell proliferation/viability was measured in LNCaP and PC3 cells with Alamar blue, and proliferation was measured in LN-CaP95 cells with BrdU incorporation. In LNCaP cells, AR specific proliferation is calculated by measuring the difference between control cells treated with or without 0.1 nM R1881.
Background: Resazurin is reduced to fluorescent resorufin, in cell work by metabolically active cells.

For the next data set, the system named is PC3 cells. The experiment in a line: Cell proliferation/viability assay, PC3 (Alamar blue). The class given is cell-based. Conditions: Homo sapiens; PC-3, Alamar blue; read-out: Cellular Proliferation/Viability IC50 (μM) PC-3. The method, then: as §1
Another data set concerns LNCaP tumors. The experiment in a line: LNCaP xenografts model in castrated male NCG mice. It is filed as in vivo. To be noted: Table 4; extrapolated Cmin in efficacy. How it is done: Tumor growth was measured in male NCG mice bearing LNCaP tumors. Castration was performed when tumors reached ˜100 mm^3 and dosing (60 mg/kg PO qd) started 1 week after castration. […] Individual tumor volume change from baseline measured at the end of the experiment.

`CC(C)(c1ccc(OCc2ocnc2S(C)(=O)=O)cc1)c1cc(Cl)c(OCCCl)c(C#N)c1` [Compound A28, 3-chloro-2-(2-chloroethoxy)-5-(2-(4-((4-(methylsulfonyl)oxazol-5-yl)methoxy)phenyl)propan-2-yl)benzonitrile]: the values for the IC50 in the data set on LNCaP cells and in the data set with PC3 cells were 0.68 µM and over 10 µM, respectively.

Turning to `CC(C)(c1ccc(OCc2ccnc(NS(C)(=O)=O)n2)cc1)c1cc(Cl)c(OCCCl)c(Cl)c1` [Compound A74, N-(4-((4-(2-(3,5-dichloro-4-(2-chloroethoxy)phenyl)propan-2-yl)phenoxy)methyl)pyrimidin-2-yl)methanesulfonamide], the IC50 in the data set with LNCaP cells was 1.16 µM; with PC3 cells, over 10 µM. Moreover, in the data set with LNCaP tumors, the “Cmin at 5 mg/kg PO” value is 29.1 µM.

Consider `CC(C)(c1ccc(OC[C@H](O)CNS(C)(=O)=O)cc1)c1cc(Cl)c(OC[C@H](O)CCl)c(Cl)c1` [X, reference compound], for which the IC50 in the data set with LNCaP cells was 3 µM; in the data set with PC3 cells, over 10 µM.

For the molecule `CC(C)(c1ccc(OCc2ccnc(NS(C)(=O)=O)n2)cc1)c1cc(Cl)c(OCCCl)c(C#N)c1` [Compound A109, N-(4-((4-(2-(3-chloro-4-(2-chloroethoxy)-5-cyanophenyl)propan-2-yl)phenoxy)methyl)pyrimidin-2-yl)methanesulfonamide], the figures for the IC50 in the data set with LNCaP cells and in the data set with PC3 cells were 0.44 µM and over 10 µM, respectively. In the data set with LNCaP tumors, the “Cmin at 5 mg/kg PO” value was 8.18 µM.

Regarding `CC(C)(c1ccc(OCc2ocnc2S(C)(=O)=O)cc1)c1cc(Cl)c(OCCCl)c(Cl)c1` [Compound A13, 5-((4-(2-(3,5-dichloro-4-(2-chloroethoxy)phenyl)propan-2-yl)phenoxy)methyl)-4-(methylsulfonyl)oxazole], the values for the IC50 with LNCaP cells and in the data set on PC3 cells were 0.85 µM and over 10 µM, respectively. Besides, in the data set with LNCaP tumors, the “Cmin at 5 mg/kg PO” value is 2.78 µM.
